From ChEMBL document CHEMBL5584244, “Discovery of novel pyrrolo[2,1-c][1,4]benzodiazepine-3,11-dione (PBD) derivatives as selective HDAC6 inhibitors for the efficient treatment of idiopathic pulmonary fibrosis (IPF) in vitro and in vivo” (Eur J Med Chem, 2024)
Activity calls are given as the source filed them. The calls are words filed in the database; no cut-off is given here.

Experiments:
[1] = molecular target: T1, Histone deacetylase 7 (Homo sapiens, UniProt Q8WUI4); test: Inhibition of N-terminal GST-tagged recombinant human HDAC7 (518 to end residues) expressed in baculovirus expression system using Boc-Lys (Tfa)-AMC as substrate incubated for 120 mins by fluorescence analysis
T1 sequence (Q8WUI4 whole entry): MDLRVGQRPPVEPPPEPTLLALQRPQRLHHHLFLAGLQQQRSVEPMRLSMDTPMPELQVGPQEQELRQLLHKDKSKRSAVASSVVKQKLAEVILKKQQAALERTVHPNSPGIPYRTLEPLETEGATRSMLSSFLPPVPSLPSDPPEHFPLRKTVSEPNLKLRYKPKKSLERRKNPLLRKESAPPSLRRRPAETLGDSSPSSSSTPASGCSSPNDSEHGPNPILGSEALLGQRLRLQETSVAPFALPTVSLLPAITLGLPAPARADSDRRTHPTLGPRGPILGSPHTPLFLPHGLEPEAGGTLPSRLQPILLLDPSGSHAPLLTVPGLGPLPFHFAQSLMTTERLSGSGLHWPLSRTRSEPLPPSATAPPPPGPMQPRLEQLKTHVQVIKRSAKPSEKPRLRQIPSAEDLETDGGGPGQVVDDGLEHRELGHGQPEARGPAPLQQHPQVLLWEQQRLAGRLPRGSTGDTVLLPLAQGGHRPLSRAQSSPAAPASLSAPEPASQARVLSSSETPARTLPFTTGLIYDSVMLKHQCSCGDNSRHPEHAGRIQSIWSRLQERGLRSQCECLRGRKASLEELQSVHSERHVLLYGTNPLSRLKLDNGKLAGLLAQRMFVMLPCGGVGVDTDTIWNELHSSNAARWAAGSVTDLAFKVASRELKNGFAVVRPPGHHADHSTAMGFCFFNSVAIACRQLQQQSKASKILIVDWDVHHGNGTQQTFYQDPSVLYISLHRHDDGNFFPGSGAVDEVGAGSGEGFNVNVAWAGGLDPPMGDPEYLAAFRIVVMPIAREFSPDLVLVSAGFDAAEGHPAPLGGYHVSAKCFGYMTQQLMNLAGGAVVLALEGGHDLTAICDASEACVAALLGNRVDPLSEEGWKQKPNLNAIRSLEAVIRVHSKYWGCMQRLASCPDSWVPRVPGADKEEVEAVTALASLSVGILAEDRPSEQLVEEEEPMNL

[2] = test system: Mus musculus; test: Anti-pulmonary fibrosis activity in bleomycin-induced C57BL/6 mouse model of pulmonary fibrosis assessed as decrease in fibrosis scars in lung at 50 to 100 mg/kg, ip for 3 weeks by H and E staining based fluorescence microscopic analysis; format: functional, organism-based; details: dose 50-100 mg/kg
[3] = test system: Mus musculus; test: Anti-pulmonary fibrosis activity in bleomycin-induced C57BL/6 mouse model of pulmonary fibrosis assessed as increase in body weight at 50 to 100 mg/kg, ip for 3 weeks; format: functional, organism-based; details: dose 50-100 mg/kg
[4] = Cytotoxicity against HELF cells assessed as reduction in viability at 2.5 to 10 uM after 48 hrs by MTT assay; format: toxicity, cell-based; details: human, dose 2.5-10 µM
[5] = molecular target: T2, Protein deacetylase HDAC6 (Homo sapiens) (UniProt Q9UBN7); test: Inhibition of HDAC6 in TGF-beta1-induced HELF cells by fluorescence based microplate reader analysis; format: cell-based; details: dose 2.5-10 µM
T2 sequence (whole entry): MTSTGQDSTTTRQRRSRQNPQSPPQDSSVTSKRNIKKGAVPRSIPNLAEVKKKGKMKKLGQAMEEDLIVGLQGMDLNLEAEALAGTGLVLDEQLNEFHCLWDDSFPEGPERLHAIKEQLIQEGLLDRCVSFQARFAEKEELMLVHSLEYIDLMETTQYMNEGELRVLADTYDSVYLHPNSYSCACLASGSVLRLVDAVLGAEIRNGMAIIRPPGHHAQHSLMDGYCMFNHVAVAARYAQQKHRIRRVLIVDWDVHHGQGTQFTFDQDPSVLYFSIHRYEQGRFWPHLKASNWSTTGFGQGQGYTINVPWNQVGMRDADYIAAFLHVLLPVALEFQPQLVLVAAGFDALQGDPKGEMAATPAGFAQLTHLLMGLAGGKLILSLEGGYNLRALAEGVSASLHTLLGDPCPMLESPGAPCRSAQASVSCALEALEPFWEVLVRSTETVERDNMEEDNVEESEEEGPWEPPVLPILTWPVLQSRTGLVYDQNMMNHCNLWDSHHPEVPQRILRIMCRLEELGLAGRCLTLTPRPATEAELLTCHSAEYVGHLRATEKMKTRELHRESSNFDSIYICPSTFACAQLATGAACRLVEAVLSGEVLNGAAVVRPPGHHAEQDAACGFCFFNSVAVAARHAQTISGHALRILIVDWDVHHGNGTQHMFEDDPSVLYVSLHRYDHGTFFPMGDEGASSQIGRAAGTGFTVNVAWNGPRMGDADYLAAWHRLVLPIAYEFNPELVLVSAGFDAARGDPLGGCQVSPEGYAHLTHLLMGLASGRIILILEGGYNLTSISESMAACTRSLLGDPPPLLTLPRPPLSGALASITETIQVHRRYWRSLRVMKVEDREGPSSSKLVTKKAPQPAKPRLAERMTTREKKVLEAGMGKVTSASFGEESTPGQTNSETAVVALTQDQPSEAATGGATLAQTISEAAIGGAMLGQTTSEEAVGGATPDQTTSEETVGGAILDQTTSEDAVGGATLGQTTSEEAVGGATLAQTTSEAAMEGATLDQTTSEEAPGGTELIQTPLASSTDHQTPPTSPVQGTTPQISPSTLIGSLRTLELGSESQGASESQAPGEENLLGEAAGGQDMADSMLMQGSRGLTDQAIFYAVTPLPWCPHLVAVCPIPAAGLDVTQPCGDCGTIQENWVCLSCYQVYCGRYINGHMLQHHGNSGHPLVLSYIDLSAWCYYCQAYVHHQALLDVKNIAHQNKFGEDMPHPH

[6] = molecular target: T2, Protein deacetylase HDAC6 (Homo sapiens); test: Inhibition of HDAC6 in TGF-beta1-induced HELF cells assessed as upregulation of acetylated alpha-tubulin level by Western blot analysis; format: cell-based; details: dose 2.5-10 µM
[7] = molecular target: Histone deacetylase 4 (Homo sapiens, UniProt P56524); test: Inhibition of recombinant human HDAC4 using Boc-Lys (Ac)-AMC as substrate incubated for 120 mins by fluorescence analysis
Chain of Histone deacetylase 4 (P56524 whole entry): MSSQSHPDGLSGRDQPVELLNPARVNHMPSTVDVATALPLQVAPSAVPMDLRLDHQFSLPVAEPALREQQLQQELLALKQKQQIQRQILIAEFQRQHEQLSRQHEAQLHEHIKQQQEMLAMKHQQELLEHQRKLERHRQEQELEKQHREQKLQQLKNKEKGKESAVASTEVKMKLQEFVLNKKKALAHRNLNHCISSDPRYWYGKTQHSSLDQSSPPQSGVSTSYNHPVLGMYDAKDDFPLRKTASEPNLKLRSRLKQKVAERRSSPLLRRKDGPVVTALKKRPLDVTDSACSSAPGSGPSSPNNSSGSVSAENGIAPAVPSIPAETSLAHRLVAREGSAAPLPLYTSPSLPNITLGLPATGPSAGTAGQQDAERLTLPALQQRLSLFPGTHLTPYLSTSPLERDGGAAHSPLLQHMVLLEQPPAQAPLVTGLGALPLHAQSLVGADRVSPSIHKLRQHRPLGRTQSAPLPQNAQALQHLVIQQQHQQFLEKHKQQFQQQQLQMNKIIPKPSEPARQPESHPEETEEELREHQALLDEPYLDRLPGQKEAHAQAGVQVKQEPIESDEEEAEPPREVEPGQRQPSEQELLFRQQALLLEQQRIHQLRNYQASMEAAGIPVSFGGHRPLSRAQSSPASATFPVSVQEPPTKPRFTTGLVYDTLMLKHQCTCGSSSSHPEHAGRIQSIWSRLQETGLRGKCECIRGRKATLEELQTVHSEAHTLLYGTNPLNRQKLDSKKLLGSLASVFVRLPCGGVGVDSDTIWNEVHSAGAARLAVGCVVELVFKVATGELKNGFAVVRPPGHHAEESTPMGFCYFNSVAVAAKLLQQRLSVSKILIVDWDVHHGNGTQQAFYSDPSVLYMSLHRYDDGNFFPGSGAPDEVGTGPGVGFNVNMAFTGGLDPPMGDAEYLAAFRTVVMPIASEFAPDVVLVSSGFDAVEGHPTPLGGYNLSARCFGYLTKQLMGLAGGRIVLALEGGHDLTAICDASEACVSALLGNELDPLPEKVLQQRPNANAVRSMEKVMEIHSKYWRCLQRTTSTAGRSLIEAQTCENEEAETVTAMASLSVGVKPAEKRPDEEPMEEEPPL

[8] = test system: HELF; test: Anti-pulmonary fibrosis activity against TGF-beta1-induced HELF cells assessed as reduction in alpha-SMA protein expression incubated for 48 hrs by Western blot analysis; format: functional, cell-based; details: Homo sapiens, dose 2.5-10 µM
[9] = Half life in human liver microsomes at 100 uM by LC-MS/MS analysis; format: ADME, Microsome
[10] = test system: Mus musculus; test: Anti-pulmonary fibrosis activity in bleomycin-induced C57BL/6 mouse model of pulmonary fibrosis assessed as decrease in collapse of the alveolar cavity in lung at 50 to 100 mg/kg, ip for 3 weeks by Masson trichrome staining based microscopic analysis; format: functional, organism-based; details: dose 50-100 mg/kg

IC50 [1]: 8.94 nM | inhibition [5]: Dose-Dependent Effect | inhibition [6]: Dose-Dependent Effect | IC50 [7]: 847 nM | half-life at 100 µM [9]: > 2.42 h
Compound: CC(=O)O.O=C(NO)c1ccc(CN2C(=O)[C@@H]3CCCN3Cc3ccccc32)cc1
Activity [2]: Active | Activity [3]: Active | Activity [4]: Non-Toxic | Activity [8]: Dose-Dependent Effect | Activity [10]: inactive
